Laboratory results as given in patent publication US10023836B2, “Medium for yeasts” (YAMAGUCHI UNIVERSITY, priority 2012, dated 2018).
Counter-ions that a name gives are not always drawn.

Experiments:
RAK2683 yeast strain [1] = assay: Candidate proliferation factors added to BM culture medium (FIG. 4); assay type: cell-based, Saccharomyces cerevisiae; settings: 24 hours
Experimental: Next, the yeast extract (M<5000) was further fractionated and proliferation was tested. […] As the substances having a molecular weight of roughly 500<M<1000, Acetyl-CoA, CoA, yeast RNA (RNA), and NAD were selected; each was added to a BM culture medium; and RAK2683 yeast strain was cultivated for 24 hours, after which OD600 was measured. Moreover, the yeast extract (YE)-added culture medium and YPD culture medium were treated as positive controls.

RAK2683 yeast strain [2] = assay: Investigation of nitrogen source used singly in MM culture medium instead of ammonium sulfate (Table 4); assay type: cell-based, Saccharomyces cerevisiae; settings: Table 4 conditions
[3] = tested on: commercially available baker's yeast; assay: Aspartic acid swapped with ammonium sulfate, compared with MM and YPD (FIG. 2); assay type: cell-based; settings: between 0.5 and 2.0% aspartic acid added
Experimental: In Table 4, a culture medium was prepared in which aspartic acid (Asp), which had the highest value for OD600 after 48 hours, was swapped with ammonium sulfate, and the proliferation of yeast (commercially available baker's yeast) in the MM culture medium and YPD was compared. […] Based on this information, a BM culture medium in which 2% aspartic acid had been added as a nitrogen source to 0.17% YNB and 2% glucose was used as an object of investigation.

[4] = tested on: Saccharomyces cerevisiae RAK3599 strain; assay: Leucine concentration in AKD culture medium, RAK3599 strain (FIG. 16B); assay type: cell-based
[5] = tested on: Saccharomyces cerevisiae leucine-requiring RAK778 strain (BY4712 (leu2Δ0) strain); assay: Leucine concentration in AKD culture medium, leucine-requiring strain (FIG. 16A); assay type: cell-based
From the text: Leucine concentration in the AKD culture mediums was adjusted to 0%, 0.0001%, 0.001%, 0.01%, 0.1%, and 1%, respectively, and proliferation of a Saccharomyces cerevisiae leucine-requiring RAK778 strain (BY4712 (leu2Δ0) strain) was investigated. […] Given the above-noted results, a preferred leucine concentration was understood to be around 0.1%.

[6] = tested on: Candida utilis JCM9624 strain; assay: Nutritional requirements in AYD culture medium (FIG. 51); assay type: cell-based; settings: component eliminated from AYD culture medium
Experimental: (§1) In a case where no special provisions are made, a procedure for a cultivation experiment using the culture medium to be investigated for proliferation was such that a yeast undergoing investigation was pre-cultured in a YPD liquid culture medium at 28° C. for 24 hours, after which the yeast was adjusted such that OD600=20. […] In addition, OD600 was measured every 15 minutes by a spectrophotometer (Cell density meter co8000, WPA). Hereafter, data is represented by graphs for a case using the automatic spectrophotometer; however, these graphs are primarily used to compare the slope of logarithmic growth phase proliferation curves for each culture medium, and because OD600 is measured without dilution, values where OD600=3 to 3.5 or more may be incorrect.
(§2) Each of the yeast strains was cultured under identical conditions using the basic culture method described above.

[7] = tested on: Candida albicans JCM1542 strain; assay: Nutritional requirements in AYD culture medium (FIG. 52); assay type: cell-based; settings: component eliminated from AYD culture medium
Experimental: as §1, §2

[8] = tested on: Candida glabrata BY23876 strain; assay: Nutritional requirements in AYD culture medium (FIG. 50); assay type: cell-based; settings: component eliminated from AYD culture medium
Experimental: In a case where no special provisions are made, a procedure for a cultivation experiment using the culture medium to be investigated for proliferation was such that a yeast undergoing investigation was pre-cultured in a YPD liquid culture medium at 28° C. for 24 hours, after which the yeast was adjusted such that OD600=20. Thereafter, 5 μL of culture solution was inoculated in 5 mL of each culture medium to be investigated, which had been dispensed into L-shaped test tubes (final OD60=0.02); aerobic roller tube culture was performed at 28° C.; and OD was continuously measured with an automatic spectrophotometer (BioPhoto recorder TVS062CA, […]). In addition, OD600 was measured every 15 minutes by a spectrophotometer (Cell density meter co8000, WPA). Hereafter, data is represented by graphs for a case using the automatic spectrophotometer; however, these graphs are primarily used to compare the slope of logarithmic growth phase proliferation curves for each culture medium, and because OD600 is measured without dilution, values where OD600=3 to 3.5 or more may be incorrect.
Nutritional requirements of each of the following yeast strains were investigated in the AYD culture medium, and utility of the AYD culture medium was confirmed. Each of the yeast strains was cultured under identical conditions using the basic culture method described above.

RAK3599 strain = assay: Vitamin and FeCl3 concentration in AKD′ culture medium (FIGS. 22 to 28); assay type: cell-based, Saccharomyces cerevisiae; settings: for proliferation at a content of 0: AKD′ culture medium without the substance
Experimental: as §1
Pyridoxine concentration in the AKD′ culture medium was adjusted to 0, 0.004, 0.04, 0.4, 4, and 40 μg/mL, respectively, and proliferation of the RAK3599 strain was investigated.
Pantothenic acid concentration in the AKD′ culture medium was adjusted to 0, 0.004, 0.04, 0.4, 4, and 40 μg/mL, respectively, and proliferation of the RAK3599 strain was investigated.
Thiamine concentration in the AKD′ culture medium was adjusted to 0, 0.004, 0.04, 0.4, 4, and 40 μg/mL, respectively, and proliferation of the RAK3599 strain was investigated.
Nicotinic acid concentration in the AKD′ culture medium was adjusted to 0, 0.004, 0.04, 0.4, 4, and 40 μg/mL, respectively, and proliferation of the RAK3599 strain was investigated.
Myo-inositol concentration in the AKD′ culture medium was adjusted to 0, 0.02 μg/mL, 0.2 μg/mL, 2 μg/mL, 20 μg/mL, and 200 μg/mL, respectively, and proliferation of the RAK 3599 strain was investigated.
FeCl3 concentration in the AKD′ culture medium was adjusted to 0, 0.002, 0.02, 0.2, 2, and 20 μg/mL, respectively, and proliferation of the RAK3599 strain was investigated.

RAK2683 yeast strain [9] = settings: glucose not added to BM culture medium; 2% ethanol, 2% glycerol or 0.1 to 2% albumin; 24 hours
Experimental: OD600 was measured after RAK2683 yeast strain had been cultivated for 24 hours in a culture medium in which between 0.1 and 2% albumin had been added to the BM culture medium.

[10] = tested on: commercially available baker's yeast; assay: Investigation of carbon source added instead of glucose in BM culture medium (FIG. 5); assay type: cell-based; settings: 2% added singly instead of glucose in BM culture medium, 28° C., 24 hours
Experimental: OD600 was measured after commercially available baker's yeast had been cultivated at 28° C. for 24 hours in a culture medium in which 2% of sugars such as galactose, raffinose, trehalose, fructose, maltose, mannose, sucrose, and ribose, or DNA (negative control) had been added instead of glucose in the BM culture medium.

CC(=O)SCCNC(=O)CCNC(=O)[C@H](O)C(C)(C)COP(=O)(O)OP(=O)(O)OC[C@H]1O[C@@H](n2cnc3c(N)ncnc32)[C@H](O)[C@@H]1OP(=O)(O)O [Acetyl-CoA]
proliferation compared with YPD (RAK2683 yeast strain [1]): none of them reaching the proliferation level of YPD

N[C@@H](CC(=O)[O-])C(=O)[O-].O.[Na+].[Na+] [Aspartic acid, L-Aspartic acid sodium salt monohydrate]
proliferation when added singly as nitrogen source (RAK2683 yeast strain [2]): favorable proliferation | proliferation compared with ammonium sulfate-added culture medium [3]: proliferation markedly improved over that of a culture medium to which ammonium sulfate had been added

CC(C)(COP(=O)(O)OP(=O)(O)OC[C@H]1O[C@@H](n2cnc3c(N)ncnc32)[C@H](O)[C@@H]1OP(=O)(O)O)[C@@H](O)C(=O)NCCC(=O)NCCS [CoA]
proliferation compared with YPD (RAK2683 yeast strain [1]): none of them reaching the proliferation level of YPD

CC(C)C[C@H](N)C(=O)O [Leucine, L-Leucine]
concentration at which proliferation was inhibited [4]: 1% | concentration at which almost no proliferation was observed [5]: less than 0.001% | concentration at which proliferation reached a maximum value [5]: 0.1% | concentration at which proliferation was inhibited [5]: 1% | preferred concentration ([5]; from results with RAK778 and RAK3599 strains): around 0.1%

NC(=O)c1ccc[n+]([C@@H]2O[C@H](COP(=O)([O-])OP(=O)(O)OC[C@H]3O[C@@H](n4cnc5c(N)ncnc54)[C@H](O)[C@@H]3O)[C@@H](O)[C@H]2O)c1 [NAD]
proliferation compared with YPD (RAK2683 yeast strain [1]): none of them reaching the proliferation level of YPD

O=S(=O)([O-])[O-].[Zn+2] [Zn2+, zinc sulfate]
nutritional requirement of the strain [6]: preferable for proliferation | nutritional requirement of the strain [7]: preferable for proliferation

O=C(O)CCCC[C@@H]1SC[C@@H]2NC(=O)N[C@@H]21 [biotin]
nutritional requirement of the strain [8]: require | nutritional requirement of the strain [6]: not require | concentration at which proliferation was slightly inhibited (RAK3599 strain; AKD′ culture medium): 200 µg/L | preferred concentration (RAK3599 strain; AKD′ culture medium): around 2 μg/L | proliferation at a content of 0 (RAK3599 strain): Almost no proliferation | nutritional requirement of the strain [7]: require

CCO [ethanol]
proliferation as carbon source (RAK2683 yeast strain [9]): almost no proliferation

OCC(O)CO [glycerol]
proliferation as carbon source (RAK2683 yeast strain [9]): almost no proliferation

O=C(O)c1cccnc1 [nicotinic acid]
nutritional requirement of the strain [8]: require | concentration at which proliferation reached a maximum value (RAK3599 strain; AKD′ culture medium): 4 µg/mL | concentration at which proliferation was inhibited (RAK3599 strain; AKD′ culture medium): 40 µg/mL | preferred concentration (RAK3599 strain; AKD′ culture medium): around 4000 μg/L | proliferation at a content of 0 (RAK3599 strain): A significant degree of proliferation | OD600 after 24 hours (RAK3599 strain; AKD′ culture medium, nicotinic acid 0 μg/mL): 9 | OD600 after 24 hours (RAK3599 strain; AKD′ culture medium, nicotinic acid 0.004 μg/mL): 10 | OD600 after 24 hours (RAK3599 strain; AKD′ culture medium, nicotinic acid 0.04 μg/mL): 10 | OD600 after 24 hours (RAK3599 strain; AKD′ culture medium, nicotinic acid 0.4 μg/mL): 9 | OD600 after 24 hours (RAK3599 strain; AKD′ culture medium, nicotinic acid 4 μg/mL): 10 | OD600 after 24 hours (RAK3599 strain; AKD′ culture medium, nicotinic acid 40 μg/mL): 8

Cc1ncc(CO)c(CO)c1O.Cl [pyridoxine, Pyridoxine hydrochloride]
nutritional requirement of the strain [8]: require | preferred concentration (RAK3599 strain; AKD′ culture medium): around 400 μg/L | proliferation at a content of 0 (RAK3599 strain): A fair degree of proliferation

O=C[C@H](O)[C@H](O)[C@H](O)CO [ribose]
proliferation as carbon source [10]: no proliferation whatsoever

Cc1ncc(C[n+]2csc(CCO)c2C)c(N)n1 [thiamine, Thiamine hydrochloride]
nutritional requirement of the strain [8]: require | nutritional requirement of the strain [6]: require | preferred concentration (RAK3599 strain; AKD′ culture medium): around 400 μg/L | proliferation at a content of 0 (RAK3599 strain): A fair degree of proliferation

OC[C@H]1O[C@H](O[C@H]2O[C@H](CO)[C@@H](O)[C@H](O)[C@H]2O)[C@H](O)[C@@H](O)[C@@H]1O [trehalose]
proliferation as carbon source [10]: no proliferation whatsoever

albumin
proliferation as carbon source (RAK2683 yeast strain [9]): almost no proliferation
